Patent publication US8759051B2, “Control of contaminant microorganisms in fermentation processes with peroxygen-releasing compounds” (E I du Pont de Nemours and Company, priority 2010, dated 2014)
Values joined by “and” are separate entries in the source; they are usually repeats but may differ in a detail not shown here. Identical values can stand only once. Like-named read-outs stand apart in the source and are kept apart here.

Experiments:
[1] = test system: lactic acid bacteria (LAB); test: Inactivation of LAB in dilute molasses at pH 5.0 in the presence of yeast Ethanol Red (Example 5); format: cell-based
Procedure: Cultures of lactic acid bacteria (LAB) were prepared as in Example 1 above. Molasses was diluted 1:3.1 with water as in previous examples. The fermenting yeast Ethanol Red was cultured as in example 1. Populations of lactic acid bacteria and yeasts were determined by dilution plating on MRS agar and YPD agar, respectively. Overnight cultures of LAB were mixed to prepare a bacterial cocktail and inoculated into molasses (diluted 1:3.1 with water) adjusted to pH 5.0 to give approximately 6.11 Log CFU/ml. Cultures of yeasts were added to each tube at a concentration of approximately 6.80 Log CFU/ml. […] The amount of UHP added was 1450 ppm. The amount of percarbonate added was 1812 ppm. Tubes were then incubated at 32° C. with agitation. […] Amphotericin inhibits the growth of yeast, facilitating enumeration of bacteria only.

[2] = Stability of peroxygen-releasing compounds during storage at 40° C., iodometric titration of hydrogen peroxide (Example 4); format: physicochemical
Procedure: A dry oven was used to store samples of the peroxygen-releasing compounds at 40° C. The oven was allowed to equilibrate overnight. Two-gram duplicate samples of each of the following peroxygen-releasing compounds were dispensed into aluminum weighing dishes: sodium percarbonate (Alfa Aesar, Ward Hill, Mass.), sodium percarbonate FB 400 (Solvay Chemicals, Inc., Houston, Tex.), sodium percarbonate FB […] (Solvay Chemicals, Inc.), calcium peroxide (Sigma-Aldrich Co., St. […] After six days, samples were analyzed for levels of hydrogen peroxide using standard iodometric titration.

[3] = test system: lactic acid bacteria (LAB); test: Inactivation of LAB in molasses at pH 4.2 and 5.4 (Examples 2 and 3); format: cell-based
Procedure: Molasses (B&G Foods, Inc., Roseland, N.J.) was diluted 1 to 3.1 with water and sterilized as in Example 1. The prepared molasses was then divided into two lots and pH-adjusted using sulfuric acid to approximately pH 4.2 and 5.4, respectively. Cultures of LAB were prepared as in Example 1 and inoculated into the molasses to give approximately 1×10^6 CFU/ml. Sodium percarbonate (Alfa Aesar, Ward Hill, Mass.) was added to give 250, 500, and 750 ppm. […] Levels of LAB were enumerated by dilution and plating onto the surface of MRS agar followed by incubation at 32° C. LAB were enumerated at approximately 2 and 24 hours after the addition of sodium percarbonate.
Molasses was prepared as above and adjusted to pH 4.2 and 5.4 using sulfuric acid. Cultures of lactic acid bacteria were prepared as indicated in Example 1 and inoculated into the molasses to give approximately 10E6 CFU/ml. Levels of bacteria were confirmed by plating serial dilutions of the inoculated molasses onto the surface of MRS agar plates as in Example 1. Calcium peroxide was added at the levels indicated. Bacterial levels were enumerated at 2 and 24 hours following addition as described above.

[4] = before storage, duplicate samples
[5] = storage at 40° C. in dry oven, day 6, duplicate samples
[6] = storage at 40° C. in dry oven, day 14, duplicate samples

In the case of `NC(N)=O.OO` [Urea hydrogen peroxide, urea hydrogen peroxide, reference compound], the “reduction of the population of LAB” value ([1]; 500 ppm as H2O2, 2 hours of incubation at 32° C., in presence of yeast) is reported as 3 log units, the “Log CFU/mL of LAB at hour indicated” value ([1]; 500 ppm as H2O2, hour 2, molasses pH 5.0, yeast approx. 6.80 Log CFU/ml, 32° C.) is reported as 3.36 Log CFU/mL and the “% H2O2 Day 0” value [2, 4] is reported as 34.53% and 34.56%. For the same compound, the “% Remaining H2O2 Day 0” value [2, 4] was 100%, the “% H2O2 Day 0” value ([2]; before storage, duplicate samples, listed as urea hydrogen peroxide) was “approximately 35%” and the “% H2O2 Day 6” value [2, 5] was 0.24% and 0.25%. The “% Remaining H2O2 Day 6” value [2, 5] was <1%, the “% H2O2 Day 6” value ([2]; storage at 40° C. in dry oven, day 6, duplicate samples, listed as urea hydrogen peroxide) was “below 1%” and the “% H2O2 Day 14” value [2, 6] was 0.08%. The “% Remaining H2O2 Day 14” value [2, 6] was 0% and the “stability during storage (in words)” value ([2]; storage at 40° C., 6 and 14 days) was “not stable during storage”.

With `O=C([O-])[O-].O=C([O-])[O-].OO.OO.OO.[Na+].[Na+].[Na+].[Na+]` [Sodium percarbonate (FB 400), sodium percarbonate] the “% Remaining H2O2 Day 0” value [2] was 100%, the “% Remaining H2O2 Day 6” value [2] was 96% and the “% Remaining H2O2 Day 14” value [2] was 96%. For the same compound, the “% H2O2 Day 0” value [2, 4] was 23.81% and 23.66%, the “% H2O2 Day 6” value [2, 5] was 22.80% and 22.74% and the “% H2O2 Day 14” value [2, 6] was 22.80% and 22.67%.

For `[Mg+2].[O-][O-]` [Magnesium peroxide, magnesium peroxide], the “% Remaining H2O2 Day 0” value [2] was 100%, the “% Remaining H2O2 Day 6” value [2] was 100% and the “% H2O2 Day 0” value [2, 4] was 10.66% and 10.72%. The “% H2O2 Day 6” value [2, 5] was 10.66% and 10.68% and the “% H2O2 Day 14” value [2, 6] was 10.64% and 10.65%.

For `O=C([O-])[O-].O=C([O-])[O-].OO.OO.OO.[Na+].[Na+].[Na+].[Na+]` [Sodium percarbonate (FB 400C), sodium percarbonate], the “% Remaining H2O2 Day 0” value [2] was 100%, the “% Remaining H2O2 Day 14” value [2] was 96% and the “% H2O2 Day 0” value [2, 4] was 26.34% and 26.25%. The “% H2O2 Day 6” value [2, 5] was 25.37% and 25.45% and the “% H2O2 Day 14” value [2, 6] was 25.35% and 25.27%.

In the case of `[Ca+2].[O-][O-]` [Calcium peroxide, calcium peroxide], the “CFU/ml LAB at hour indicated” value ([3]; molasses at pH 4.2, 197 ppm (69 ppm as H2O2), hour 2) is reported as 2.33 × 10^6 CFU/ml, the “CFU/ml LAB at hour indicated” value ([3]; molasses at pH 4.2, 197 ppm (69 ppm as H2O2), hour 24) is reported as 4.25 × 10^6 CFU/ml and the “CFU/ml LAB at hour indicated” value ([3]; molasses at pH 4.2, 393 ppm (138 ppm as H2O2), hour 2) is reported as 1.22 × 10^6 CFU/ml. For the same compound, the “CFU/ml LAB at hour indicated” value ([3]; molasses at pH 4.2, 393 ppm (138 ppm as H2O2), hour 24) was 1.00 × 10^1 CFU/ml, the “CFU/ml LAB at hour indicated” value ([3]; molasses at pH 4.2, 590 ppm (207 ppm as H2O2), hour 2) was 4.70 × 10^5 CFU/ml and the “CFU/ml LAB at hour indicated” value ([3]; molasses at pH 4.2, 590 ppm (207 ppm as H2O2), hour 24) was <10 CFU/ml. The “CFU/ml LAB at hour indicated” value ([3]; molasses at pH 5.4, 197 ppm (69 ppm as H2O2), hour 2) was 8.90 × 10^5 CFU/ml, the “CFU/ml LAB at hour indicated” value ([3]; molasses at pH 5.4, 197 ppm (69 ppm as H2O2), hour 24) was 4.00 × 10^4 CFU/ml and the “CFU/ml LAB at hour indicated” value ([3]; molasses at pH 5.4, 393 ppm (138 ppm as H2O2), hour 2) was 5.00 × 10^2 CFU/ml. The “CFU/ml LAB at hour indicated” value ([3]; molasses at pH 5.4, 393 ppm (138 ppm as H2O2), hour 24) was “below the detection limit”, the “CFU/ml LAB at hour indicated” value ([3]; molasses at pH 5.4, 393 ppm (138 ppm as H2O2), hour 24, listed as Calcium percarbonate) was <10 CFU/ml and the “CFU/ml LAB at hour indicated” value ([3]; molasses at pH 5.4, 590 ppm (207 ppm as H2O2), hour 2) was 8.0×10^4 CFU/ml. The “CFU/ml LAB at hour indicated” value ([3]; molasses at pH 5.4, 590 ppm (207 ppm as H2O2), hour 2, listed as Calcium percarbonate) was 8.00 × 10^4 CFU/ml, the “CFU/ml LAB at hour indicated” value ([3]; molasses at pH 5.4, 590 ppm (207 ppm as H2O2), hour 24) was <10 CFU/ml and the “reductions in LAB” value ([3]; molasses pH 4.2, 197 ppm calcium peroxide, 2 hour) was “only slight reductions”. For the same compound, the “reduction of LAB” value ([3]; molasses pH 4.2, 197 ppm calcium peroxide, 24 hours) was “approximately 1 log”, the “reductions in LAB” value ([3]; molasses pH 4.2, 393 ppm calcium peroxide, 2 hour) was “only slight reductions” and the “reduction of the population of LAB” value ([3]; molasses pH 4.2, 393 ppm calcium peroxide, 24 hours) was “more than 6 log units”. The “reduction of the population of LAB” value ([3]; molasses pH 4.2, 590 ppm calcium peroxide, 2 hour) was “approximately 1 log”, the “reduction of the population of LAB” value ([3]; molasses pH 4.2, 590 ppm calcium peroxide, 24 hours) was “more than 6 log units” and the “% Remaining H2O2 Day 0” value [2] was 100%. The “% Remaining H2O2 Day 6” value [2] was 97%, the “% Remaining H2O2 Day 14” value [2] was 97% and the “% H2O2 Day 0” value [2, 4] was 34.71% and 34.73%. For the same compound, the “% H2O2 Day 6” value [2, 5] was 33.66% and 33.60%, the “% H2O2 Day 14” value [2, 6] was 33.62% and 33.57% and the “relative hydrogen peroxide retained during storage” value ([2]; storage at 40° C., day not given) was 97%.
